Experimental data reported in ChEMBL document CHEMBL1221406, “Germacrane-type sesquiterpenoids from the roots of Valeriana officinalis var. latifolia” (J Nat Prod, 2010).
The source made the active and inactive calls. The rule behind the calls is not given here.

Target: Acetylcholinesterase (Homo sapiens) (UniProt P22303)
Assay: Inhibition of AchE at 100 uM after 30 mins by Ellman's method

Sequence of Acetylcholinesterase (Homo sapiens) (P22303 whole entry): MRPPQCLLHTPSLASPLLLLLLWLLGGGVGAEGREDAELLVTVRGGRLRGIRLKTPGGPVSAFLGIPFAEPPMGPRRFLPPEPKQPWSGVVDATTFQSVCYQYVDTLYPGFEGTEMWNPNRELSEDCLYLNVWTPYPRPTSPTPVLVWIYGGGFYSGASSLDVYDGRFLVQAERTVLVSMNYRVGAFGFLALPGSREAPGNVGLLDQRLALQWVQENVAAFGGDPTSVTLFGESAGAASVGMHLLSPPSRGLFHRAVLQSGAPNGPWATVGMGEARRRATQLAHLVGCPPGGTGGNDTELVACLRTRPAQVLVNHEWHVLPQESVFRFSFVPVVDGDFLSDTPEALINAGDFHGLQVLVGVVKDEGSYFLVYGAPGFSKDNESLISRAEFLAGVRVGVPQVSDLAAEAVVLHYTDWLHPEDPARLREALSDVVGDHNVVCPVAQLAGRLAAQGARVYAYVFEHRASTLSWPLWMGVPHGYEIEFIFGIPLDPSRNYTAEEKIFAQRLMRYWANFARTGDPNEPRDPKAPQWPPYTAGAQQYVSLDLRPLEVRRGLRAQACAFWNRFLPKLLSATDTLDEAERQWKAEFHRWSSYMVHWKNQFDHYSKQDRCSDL

Row | Compound | inhibition
1 | CC(=O)O[C@H]1C/C(C)=C/CC/C(C(=O)O)=C/[C@@H]2[C@H]1C2(C)C | inactive
2 | CC(=O)O[C@H]1C[C@@]2(C)O[C@@H]2CC/C(C=O)=C\[C@H]2[C@@H]1C2(C)C | inactive
3 | CC1(C)[C@@H]2CC[C@@]3(C=O)O[C@@H]3CC/C(C=O)=C\[C@@H]21 | inactive
4 | C/C1=C\CC/C(C(=O)O)=C/[C@@H]2[C@H](CC1)C2(C)C | inactive
5 | C=C1CC[C@H]2[C@@H](/C=C(\C(=O)O)CC[C@@H]1O)C2(C)C | inactive
6 | CC(=O)OC/C1=C\CC/C(C=O)=C\[C@@H]2[C@@H](CC1)C2(C)C | inactive
7 | CC1(C)[C@@H]2CC[C@@]3(C)O[C@@H]3CC/C(C=O)=C\[C@@H]21 | 25.9%
8 | C/C1=C\CC/C(C=O)=C\[C@H]2[C@@H](C[C@H]1O)C2(C)C | inactive
9 | CC(=O)OC[C@@]12CC[C@@H]3[C@H](/C=C(/C=O)CC[C@H]1O2)C3(C)C | inactive
